Tested on: healthy subjects
Experiment: FIH study, SAD part (and integrated FE arm): safety and tolerability
[1] = 150 mg IMB-1018972 fasted (fasted-fed group)
[2] = 150 mg IMB-1018972 fed (fasted-fed group)
[3] = SAD part, all IMB-1018972 doses (N=24)

Description: In Groups A1, A2, A3, and A4, subjects received a single oral dose of an IR formulation of IMB-1018972 or placebo under fasted conditions (an overnight fast of at least 10 hours). […] Each subject participated in only 1 group during the study.
AEs were recorded from (first) admission until completion of the follow-up visit. Any clinically significant observations in results of clinical laboratory, 12-lead ECGs, vital signs, or physical examinations were recorded as AEs.
A treatment-emergent AE (TEAE) was defined as any event not present prior to (the first) administration of the study drug or any event already present that worsened in either severity or frequency following exposure to the study drug.
At several time points before and after drug administration, subjects were asked nonleading questions to determine the occurrence of AEs. Subjects were asked in general terms about any AEs at regular intervals during the study. In addition, all AEs reported spontaneously during the course of the study were recorded. Details included description of the event, date and time of onset, date and time of end, total duration, severity, relationship to study drug, intervention, seriousness, and outcome. All answers were interpreted by the Investigator and were recorded in the eCRF. All AEs were classified according to the Medical Dictionary for Regulatory Activities (MedDRA; Version 22.0) for AEs.
The severity of the AEs was rated as mild, moderate, or severe; the relationship between the AEs and the study drug was indicated as none, unlikely, possibly, likely, or definitely. Adverse events assessed as possibly, likely, or definitely were considered related to the study drug; AEs assessed as none or unlikely were considered not related to the study drug.
The following parameters were measured: • Clinical chemistry (serum quantitatively): total bilirubin, alkaline phosphatase, gamma glutamyl transferase, aspartate aminotransferase (AST), alanine aminotransferase (ALT), lactate dehydrogenase, creatinine, urea, total protein, glucose, inorganic phosphate, sodium, potassium, • calcium, and chloride • Hematology (blood quantitatively): leukocytes, erythrocytes, hemoglobin, hematocrit, thrombocytes, partial automated differentiation (lymphocytes, monocytes, eosinophils, basophils, and neutrophils), mean corpuscular volume, mean corpuscular hemoglobin, and mean corpuscular hemoglobin concentration • Coagulation (blood quantitatively): prothrombin time (reported in seconds and as international normalized ratio), activated partial thromboplastin time, and fibrinogen • Urinalysis (urine qualitatively): hemoglobin, urobilinogen, ketones, glucose, and protein • Serology: HBsAg, anti-HCV, and anti-HIV 1 and 2 • Drug and alcohol screen: opiates, methadone, cocaine, amphetamines (including ecstasy), cannabinoids, barbiturates, benzodiazepines, tricyclic antidepressants, and alcohol • Pregnancy test (females only): (3-human chorionic gonadotropin in serum
Systolic and diastolic blood pressure and pulse were recorded after the subject had been resting for at least 5 minutes in the supine position. These assessments were made using an automated device. Body temperature and respiratory rate were measured subsequently.
The ECG was recorded using an ECG machine equipped with computer-based interval measurements (with no/minimal disturbance by procedures). The following ECG parameters were recorded: heart rate, PR-interval, QRS-duration, QT-interval, QTcF-interval, and the interpretation of the ECG profile by the Investigator.
In the SAD part (not in the second period of the FE group A4, and not in Group A5), a 12-lead ECG was recorded continuously by telemetry from 2 hours before to 24 hours after drug administration on Day 1.

With COc1ccc(CN2CCN(CCOC(=O)c3cccnc3)CC2)c(OC)c1OC [IMB-1018972, 2-[4-[(2,3,4-trimethoxyphenyl)methyl]piperazin-1-yl]ethyl pyridine-3-carboxylate] the “Number of TEAEs” value (50 mg IMB-1018972 fasted) was 3, the “Subjects reporting TEAEs” value (50 mg IMB-1018972 fasted) was 50.0% and the “Number of TEAEs” value (150 mg IMB-1018972 fasted) was 5. For the same compound, the “Subjects reporting TEAEs” value (150 mg IMB-1018972 fasted) was 50.0%, the “Number of TEAEs” value [1] was 17 and the “Subjects reporting TEAEs” value [1] was 66.7%. The “Number of TEAEs” value [2] was 4, the “Subjects reporting TEAEs” value [2] was 20% and the “Number of TEAEs” value (400 mg IMB-1018972 fasted) was 16. For the same compound, the “Subjects reporting TEAEs” value (400 mg IMB-1018972 fasted) was 100%, the “Effect of dosing under fed conditions on number and incidence of TEAEs” value (FE arm of the SAD part, 150 mg) was “appeared to attenuate” and the “Severe TEAEs” value (SAD part) was “No severe TEAEs”. For the same compound, the “Number of TEAEs of flushing” value (SAD part, IMB-1018972) was 6, the “Number of TEAEs of flushing of mild severity” value (SAD part, IMB-1018972) was 1 and the “Number of TEAEs of flushing of moderate severity” value (SAD part, IMB-1018972) was 5. For the same compound, the “Number of TEAEs considered related to the study drug” value (SAD part, IMB-1018972 (N=24)) was 21, the “Number of TEAEs, SOC gastrointestinal disorders” value (SAD part, IMB-1018972 (N=24)) was 9 and the “Number of TEAEs, SOC general disorders and administration site conditions” value (SAD part, IMB-1018972 (N=24)) was 9. For the same compound, the “Number of TEAEs, SOC nervous system disorders” value (SAD part, IMB-1018972 (N=24)) was 9, the “Number of TEAEs, SOC skin and subcutaneous tissue disorders” value (SAD part, IMB-1018972 (N=24)) was 4 and the “Number of TEAEs, SOC vascular disorders” value (SAD part, IMB-1018972 (N=24)) was 7. For the same compound, the “Number of drug-related TEAEs, nervous system disorders” value (SAD part, IMB-1018972 (N=24)) was 5, the “Number of drug-related TEAEs, vascular disorders (flushing)” value (SAD part, IMB-1018972 (N=24)) was 6 and the “Subjects reporting TEAEs considered related to the study drug” value (SAD part, IMB-1018972 (N=24)) was 29.2%. For the same compound, the “Subjects reporting TEAEs, SOC gastrointestinal disorders” value (SAD part, IMB-1018972 (N=24)) was 16.7%, the “Subjects reporting TEAEs, SOC general disorders and administration site conditions” value (SAD part, IMB-1018972 (N=24)) was 20.8% and the “Subjects reporting TEAEs, SOC nervous system disorders” value (SAD part, IMB-1018972 (N=24)) was 29.2%. The “Subjects reporting TEAEs, SOC skin and subcutaneous tissue disorders” value (SAD part, IMB-1018972 (N=24)) was 16.7%, the “Subjects reporting TEAEs, SOC vascular disorders” value (SAD part, IMB-1018972 (N=24)) was 29.2% and the “Subjects reporting drug-related TEAEs, nervous system disorders” value (SAD part, IMB-1018972 (N=24)) was 16.7%. For the same compound, the “Subjects reporting drug-related TEAEs, vascular disorders (flushing)” value (SAD part, IMB-1018972 (N=24)) was 25%, the “Number of TEAEs” value [3] was 45 and the “Subjects reporting TEAEs” value [3] was 66.7%. For the same compound, the “Number of TEAEs of moderate severity” value (SAD part, of 48 TEAEs with IMB-1018972 or placebo) was 11, the “Drug-related TEAEs” value (following 50 mg and 150 mg (fasted only group) IMB-1018972) was “No drug-related TEAEs” and the “Subjects who reported flushing” value (single 150 mg IMB-1018972, fasted, FE arm) was 2 subjects. For the same compound, the “Subjects who reported flushing” value (single 400 mg IMB-1018972, fasted) was “Four” and the Tolerability (single oral IMB-1018972 50, 150, 400 mg fasted and 150 mg fed) was “well tolerated”.

Source: patent US12285428B2 (IMBRIA PHARMACEUTICALS, INC., priority 2021, dated 2025)
